Reference: the NIST ThermoML archive (doi:10.1021/acs.jced.8b00181)

Tests used:
[1] = refractive index (Na D-line) (dimensionless); conditions: 298 K; 101.33 kPa; Liquid; Standard Abbe refractometry
[2] = mn = molality of the nth substance listed, in mol/kg; conditions: 298 K, 100 kPa, Liquid, Frequency=0.001 MHz, Alternating current cell with electrodes
[3] = refractive index (Na D-line) (dimensionless); mn = molality of the nth substance listed, in mol/kg; conditions: 298 K, 100 kPa, Liquid, Standard Abbe refractometry
[4] = 298 K; 100 kPa; Liquid; Frequency=0.001 MHz; Alternating current cell with electrodes

CCO [ethanol]
Conditions	refractive index
[1]	1.36

CCO [ethanol] + O
Conditions	electrical conductivity, [2] [S/m]	refractive index, [3]
m1 = 0.9	0.000248	1.3362
m1 = 1.46	0.000259	1.3375
m1 = 2.69	0.000287	1.34
m1 = 4.09	0.000311	1.3431
m1 = 7.59	0.000251	1.3497
m1 = 9.51	0.000252	1.3521

CCCO [propan-1-ol]
Conditions	refractive index
[1]	1.3834

CCCO [propan-1-ol] + O
Conditions	electrical conductivity, m1 = 0.87 [S/m]	electrical conductivity, m1 = 1.49 [S/m]	electrical conductivity, m1 = 2.76 [S/m]	electrical conductivity, m1 = 4.29 [S/m]	electrical conductivity, m1 = 6.77 [S/m]	refractive index, m1 = 0.87	refractive index, m1 = 1.49	refractive index, m1 = 2.76	refractive index, m1 = 4.29	refractive index, m1 = 6.77
[2]	0.000153	0.000145	0.000111	0.000117	0.000143	–	–	–	–	–
[3]	–	–	–	–	–	1.3381	1.3414	1.3465	1.3516	1.3572

CC(C)O [propan-2-ol]
Conditions	refractive index
[1]	1.3758

CC(C)O [propan-2-ol] + O
Conditions	electrical conductivity, [2] [S/m]	refractive index, [3]
m1 = 0.85	0.000134	1.3374
m1 = 1.45	0.000141	1.3408
m1 = 2.84	8.2e-05	1.3467
m1 = 4.36	9.4e-05	1.3511
m1 = 8.72	5e-05	1.361
m1 = 13.08	4.7e-05	1.365

CCCCCCCCCCCCOS(=O)(=O)[O-].[Na+] [sodium dodecyl sulfate] + O
[2]
Conditions	electrical conductivity [S/m]
m1 = 0.00099	0.00957
m1 = 0.00198	0.0183
m1 = 0.00297	0.0271
m1 = 0.00396	0.0357
m1 = 0.00495	0.0443
m1 = 0.00594	0.0528
m1 = 0.00693	0.061
m1 = 0.00792	0.0684
m1 = 0.00891	0.074
m1 = 0.0099	0.0777
m1 = 0.01089	0.0813
m1 = 0.01188	0.0846
m1 = 0.01287	0.0878
m1 = 0.01386	0.09108

O [water]
Conditions	electrical conductivity [S/m]	refractive index
[1]	–	1.3327
[4]	0.000502	–
